Literature values in patent US20240191206A1, “SERUM FREE MEDIA FOR SUSPENSION CULTURE OF MAMMALIAN LIVESTOCK PLURIPOTENT STEM CELLS” (ACCELLTA LTD., priority 2021, published 2024).

## O=S(=O)(F)Cc1ccccc1 [PMSF, phenylmethylsulfonyl fluoride]
other
  stability in water: rapidly degraded
Serine protease
  concentration at which proteolytic inhibition occurs: 0.1 to 1 mM
